The results in this text go back to patent US8119635B2, “Diazabicyclic central nervous system active agents” (Abbott Laboratories, priority 2000, dated 2012).

In series [1] the target is T1, neuronal nicotinic acetylcholine receptors (Rattus norvegicus, UniProt P09483+P12390).
T1 construct: crude synaptic membrane preparations from whole rat brain; from tissue; host or cells: whole rat brain, crude synaptic membranes
The series is described as follows: Binding of [3H]-cytisine to neuronal nicotinic acetylcholine receptors, crude synaptic membranes from whole rat brain.

Series [2] has as its system mice. Briefly: Mouse hot plate paradigm (analgesia). Format: in vivo. The settings on record: ip, 0.5 h, intraperitoneal, dosed 30 minutes prior to testing, hot plate 55° C., latency until the tenth jump, read-out: (MED) minimally effective dose, mouse hot plate. On the procedure: An in vivo protocol was utilized to determine the effectiveness of nicotinic acetylcholine receptor ligands as analgesic agents in the mouse hot plate paradigm.
Separate groups of mice, (n=8/group) were utilized for each dose group. All drugs were administered by the intraperitoneal route of administration. Test drugs were dissolved in water to make a 6.2 mM stock solution. Animals were dosed with this solution (10 mL/kg body weight) for a 62 micromol/kg dose. Lower doses were administered similarly, following serial dilution of the stock solution in half-log increments. Animals were dosed 30 minutes prior to testing in the hot plate. The hot-plate utilized was an automated analgesia monitor (Model #AHP16AN, Omnitech Electronics, Inc. of Columbus, Ohio). The temperature of the hot plate was maintained at 55° C. and a cut-off time of 180 seconds was utilized. Latency until the tenth jump was recorded as the dependent measure. An increase in the tenth jump latency relative to the control was considered an effect.

In series [3] the test system is Male Sprague-Dawley rats. Briefly: Formalin test (analgesia). Format: in vivo. Particulars: Rattus norvegicus, ip, intraperitoneally 5 minutes before injection of 50 μL 5% formalin into rear paw, nocifensive behaviors, read-out: (MED) minimally effective dose, formalin test. Here is the method: Another in vivo protocol utilized to determine the effectiveness of nicotinic acetylcholine receptor ligands as analgesic agents was the formalin test.
Male Sprague-Dawley rats (Charles River, Portage, Mich.) weighing 200 to 400 grams were used for all experiments. After a 20 minute period of acclimation to individual cages, 50 μL of a 5% formalin solution was injected subcutaneous into the dorsal aspect of one of the rear paws and the rats were then returned to the clear observation cages suspended above mirror panels. […] Phase 1 of the formalin test was defined as the period of time immediately after injection of formalin until 10 minutes after the formalin injection (i.e., 0-10 minutes after formalin). Phase 2 was defined as the 20 minute period from 30 to 50 minutes after formalin injection. The investigator recorded nocifensive behaviors in the injected paw of four animals during the session by observing each animal for one 15 second observation period during each 1 minute interval. Nocifensive behaviors recorded included flinching, licking or biting the injected paw. In dose-response studies, the test compound (or saline) was administered intraperitoneally 5 minutes before injection of formalin.

Structures can show the parent of a compound that is named as a salt. Where two headings read alike, the source gives them in different places.

T1 sequence (P09483 31-630): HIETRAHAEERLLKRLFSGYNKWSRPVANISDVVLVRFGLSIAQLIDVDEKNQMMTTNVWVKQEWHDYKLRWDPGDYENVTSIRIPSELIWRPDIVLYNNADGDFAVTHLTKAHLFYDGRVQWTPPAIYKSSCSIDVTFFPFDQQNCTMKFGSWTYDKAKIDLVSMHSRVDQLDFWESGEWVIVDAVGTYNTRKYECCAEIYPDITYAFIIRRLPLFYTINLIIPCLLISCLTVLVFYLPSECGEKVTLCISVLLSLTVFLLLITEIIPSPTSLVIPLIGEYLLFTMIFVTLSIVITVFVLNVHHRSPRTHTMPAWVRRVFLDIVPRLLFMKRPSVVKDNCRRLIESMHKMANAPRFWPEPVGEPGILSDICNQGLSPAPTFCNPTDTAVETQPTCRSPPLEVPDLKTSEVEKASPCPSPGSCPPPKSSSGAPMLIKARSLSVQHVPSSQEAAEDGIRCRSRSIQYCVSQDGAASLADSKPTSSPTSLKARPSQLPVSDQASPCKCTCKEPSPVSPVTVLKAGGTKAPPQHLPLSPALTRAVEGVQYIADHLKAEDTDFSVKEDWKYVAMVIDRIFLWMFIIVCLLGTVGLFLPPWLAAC
T1 sequence (P12390 25-500): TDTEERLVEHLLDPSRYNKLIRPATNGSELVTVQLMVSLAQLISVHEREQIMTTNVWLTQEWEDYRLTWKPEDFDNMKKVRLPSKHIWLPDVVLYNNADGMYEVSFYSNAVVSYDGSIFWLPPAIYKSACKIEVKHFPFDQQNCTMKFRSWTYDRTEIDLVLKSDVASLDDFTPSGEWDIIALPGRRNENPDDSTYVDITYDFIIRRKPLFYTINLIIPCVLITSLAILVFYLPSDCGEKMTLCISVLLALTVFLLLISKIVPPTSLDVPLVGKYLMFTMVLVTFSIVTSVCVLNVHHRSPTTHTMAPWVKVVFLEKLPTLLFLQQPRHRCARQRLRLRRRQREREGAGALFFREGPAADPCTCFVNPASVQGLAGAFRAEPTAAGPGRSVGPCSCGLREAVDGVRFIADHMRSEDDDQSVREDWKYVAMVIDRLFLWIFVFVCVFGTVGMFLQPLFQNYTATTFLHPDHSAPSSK

One may read the Ki as a dissociation constant, usually derived from enzyme kinetics or from competition with a known ligand. `Clc1ccc(N2C[C@H]3CCCN[C@H]3C2)cn1` (relative stereo) [Example 22, cis-6-(6-chloro-3-pyridinyl)octahydro-1H-pyrrolo[3,4-b]pyridine dihydrochloride] displayed a Ki in series [1] of 11000 pM. The values for the minimal effective dose in series [2] and in series [3] were 19 µmol/kg and 1.9 µmol/kg, respectively.
In the same order, the values of `c1cncc(N2C[C@H]3CCCN[C@H]3C2)c1` (relative stereo) [Example 23, cis-6-(3-pyridinyl)octahydro-1H-pyrrolo[3,4-b]pyridine dihydrochloride] are 4100 pM, 62 µmol/kg and 0.62 µmol/kg.
In turn, `c1cncc(N2CC[C@H]3CN[C@H]3C2)c1` (relative stereo) [Example 33, (cis)-3-(3-pyridinyl)-3,8-diazabicyclo[4.2.0]octane tris(4-methylbenzenesulfonate)] gave a Ki in series [1] of 20 pM. For the same compound, the minimal effective dose in series [2] is 1.9 µmol/kg; in series [3], 0.62 µmol/kg.
In general, melting point refers to the temperature, or range, at which the solid turns liquid. With `Cl.Cl.c1cncc(N2C[C@H]3CNC[C@H]3C2)c1` [Example 1, cis-2-(3-pyridinyl)octahydropyrrolo[3,4-c]pyrrole dihydrochloride], the melting point is 250 to 252 °C (dec.). The compound also gave an inhibition constant Ki in series [1] of 120 pM. In addition, the minimal effective dose in series [2] came to 19 µmol/kg. The minimal effective dose in series [3] is 0.62 µmol/kg.
Compound `CN1C[C@@H]2CN(c3cccnc3)C[C@@H]2C1.Cl` [Example 2, cis-2-methyl-5-(3-pyridinyl)octahydropyrrolo[3,4-c]pyrrole hydrochloride] yielded a melting point of 207 to 209 °C. The compound also gave a Ki in series [1] of 26000 pM.
Turning to `Cl.Clc1ccc(N2C[C@H]3CNC[C@H]3C2)cn1` [Example 3, cis-2-(6-chloro-3-pyridinyl)octahydropyrrolo[3,4-c]pyrrole hydrochloride], the melting point is 230 to 236 °C (dec.). Also, the inhibition constant Ki in series [1] worked out at 200 pM. In addition, the minimal effective dose in series [2] is 6.2 µmol/kg.
On to `Cl.Cl.c1ccc2ncc(N3C[C@H]4CNC[C@H]4C3)cc2c1` [Example 5, cis-2-(3-quinolinyl)octahydropyrrolo[3,4-c]pyrrole dihydrochloride], for which the melting point is greater than 260 °C. Further, the inhibitory constant (Ki) in series [1] is 1700 pM.
`COc1cncc(N2C[C@H]3CNC[C@H]3C2)c1` [Example 7, cis-2-(5-methoxy-3-pyridinyl)octahydropyrrolo[3,4-c]pyrrole dihydrochloride]: the Ki in series [1] is 80 pM. The minimal effective dose in series [2] stood at 19 µmol/kg; in series [3] it was 6.2 µmol/kg.
On to `CCOc1cncc(N2C[C@H]3CNC[C@H]3C2)c1` [Example 8, cis-2-(5-ethoxy-3-pyridinyl)octahydropyrrolo[3,4-c]pyrrole dihydrochloride], for which the melting point is 226 to 227 °C. This compound registered an inhibition constant (Ki) in series [1] of 40 pM. In addition, in series [2], the minimal effective dose amounted to 6.2 µmol/kg.
`COc1cc(N2C[C@H]3CNC[C@H]3C2)cnc1Cl` [Example 10, cis-2-(6-chloro-5-methoxy-3-pyridinyl)octahydropyrrolo[3,4-c]pyrrole dihydrochloride]: the affinity in series [1] corresponds to a Ki of 30 pM. Besides, the minimal effective dose came out at 6.2 µmol/kg in series [2] and 1.9 µmol/kg in series [3].
As for `Cl.Cl.FC(F)(F)COc1cncc(N2C[C@H]3CNC[C@H]3C2)c1` [Example 12, cis-2-[5-(2,2,2-trifluoroethoxy)-3-pyridinyl]octahydropyrrolo[3,4-c]pyrrole dihydrochloride], the melting point is 233 to 234 °C (dec.). Moreover, the Ki in series [1] stood at 50 pM. In addition, the minimal effective dose in series [2] stood at 62 µmol/kg.
On to `Clc1ccc(N2C[C@H]3CCN[C@H]3C2)cn1` [Example 14, (3aR,6aR)-5-(6-chloro-3-pyridinyl)octahydropyrrolo[3,4-b]pyrrole dihydrochloride], for which the Ki in series [1] stood at 1100 pM. Further, the values for the minimal effective dose in series [2] and in series [3] were 1.9 µmol/kg and 0.62 µmol/kg, respectively.
Consider `Clc1ccc(N2C[C@@H]3CCN[C@@H]3C2)cn1` [Example 15, (3aS,6aS)-5-(6-chloro-3-pyridinyl)octahydropyrrolo[3,4-b]pyrrole dihydrochloride], for which the Ki in series [1] stood at 6300 pM. In addition, the minimal effective dose in series [2] is 19 µmol/kg; in series [3] it was greater than 6.2 µmol/kg.
Turning to `Clc1cc(N2C[C@H]3CCN[C@H]3C2)cnc1Cl` [Example 24, (3aR,6aR)-5-(5,6-dichloro-3-pyridinyl)octahydropyrrolo[3,4-b]pyrrole hydrochloride], the Ki in series [1] was determined as 160 pM. Also, the minimal effective dose in series [2] and in series [3] was 6.2 µmol/kg in each case.
As to `c1cncc(N2C[C@H]3CCN[C@H]3C2)c1` [Example 28, (3aR,6aR)-5-(3-pyridinyl)octahydropyrrolo[3,4-b]pyrrole dihydrochloride], in series [1] ([3H]-CYT 1.25 nM, whole rat brain membranes, 60 minutes at 4° C., IC50 converted to Ki by Cheng and Prusoff correction, read-out: Average Ki), the inhibitory constant (Ki) came to 340 pM. Further, the minimal effective dose came to 6.2 µmol/kg in series [2] and 1.9 µmol/kg in series [3].
`COc1cncc(N2C[C@H]3CCN[C@H]3C2)c1` [Example 29, (3aR,6aR)-5-(5-methoxy-3-pyridinyl)octahydropyrrolo[3,4-b]pyrrole dihydrochloride] came in with an inhibition constant (Ki) in series [1] of 350 pM. Moreover, the values for the minimal effective dose in series [2] and in series [3] were 19 µmol/kg and 6.2 µmol/kg, respectively.
